Results: article PMC6328172, “5-HT2 receptor binding, functional activity and selectivity in N-benzyltryptamines” (PLoS ONE, 2019)
Like-named read-outs stand apart in the source and are kept apart here.

How the values were obtained:
human 5-HT2A receptor [1] = target: T1, human 5-HT2A receptor (Homo sapiens, UniProt P28223); experiment: Ca2+ mobilization in CHO h5-HT2A cells; format: cell-based; conditions: for EC50: Ca2+ mobilization; for Selectivity 5-HT2A/2C (functional): from EC50 values, Table 2; for Emax: relative efficacy, % of response to 5-HT
T1 construct: expressed in transfected cells; host or cells: CHO (CHO-5-HT2A cell line)

human 5-HT2C receptor [2] = target: T2, human 5-HT2C receptor (Homo sapiens, UniProt P28335); experiment: Competition binding to the human 5-HT2C receptor ([3H]mesulergine, HeLa-5-HT2C membranes); conditions: for Selectivity 5-HT2C/2A (binding, in parentheses): from Ki values, Table 1; for Ki: human receptor, [3H]mesulergine displacement, no unit in the table, nM, read-out: 5-HT2C Ki (in parentheses) (converted)
T2 construct: expressed in transfected cells; host or cells: HeLa (HeLa-5-HT2C cell line)
T2 sequence (P28335 33-458): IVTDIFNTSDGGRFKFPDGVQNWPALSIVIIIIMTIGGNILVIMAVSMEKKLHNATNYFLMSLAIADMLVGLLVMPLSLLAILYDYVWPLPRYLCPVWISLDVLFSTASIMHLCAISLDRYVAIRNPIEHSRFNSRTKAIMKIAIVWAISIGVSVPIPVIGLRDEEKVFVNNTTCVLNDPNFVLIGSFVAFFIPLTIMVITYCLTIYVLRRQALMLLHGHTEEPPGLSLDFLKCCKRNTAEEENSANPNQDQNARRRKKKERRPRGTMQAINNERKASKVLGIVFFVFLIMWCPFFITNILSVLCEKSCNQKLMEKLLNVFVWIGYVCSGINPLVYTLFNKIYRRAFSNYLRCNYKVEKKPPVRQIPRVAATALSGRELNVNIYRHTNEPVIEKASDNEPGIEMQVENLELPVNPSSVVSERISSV

human 5-HT2B receptor = human 5-HT2B receptor (Homo sapiens, UniProt P41595); experiment: Competition binding to the human 5-HT2B receptor ([3H]LSD, CHO-5-HT2B membranes)
human 5-HT2A receptor [3] = target: T1, human 5-HT2A receptor; experiment: Competition binding to the human 5-HT2A receptor ([3H]ketanserin, CHO-5-HT2A membranes); conditions: for Selectivity 5-HT2A/2C (binding): from Ki values, Table 1; for Ki: human receptor, [3H]ketanserin displacement, no unit in the table, nM, read-out: 5-HT2A Ki (in parentheses) (converted)
human 5-HT2C receptor [4] = target: T2, human 5-HT2C receptor; experiment: Ca2+ mobilization in HeLa h5-HT2C cells; format: cell-based
[5] = no unit in the table, nM, read-out: 5-HT2A EC50 (in parentheses) (converted)
[6] = Ca2+ mobilization; no unit in the table, nM; read-out: 5-HT2C EC50 (in parentheses) (converted)
[7] = pEC50 ± SEM, read-out: 5-HT2A pEC50 (converted)

human 5-HT2B receptor, sequence (P41595 whole entry): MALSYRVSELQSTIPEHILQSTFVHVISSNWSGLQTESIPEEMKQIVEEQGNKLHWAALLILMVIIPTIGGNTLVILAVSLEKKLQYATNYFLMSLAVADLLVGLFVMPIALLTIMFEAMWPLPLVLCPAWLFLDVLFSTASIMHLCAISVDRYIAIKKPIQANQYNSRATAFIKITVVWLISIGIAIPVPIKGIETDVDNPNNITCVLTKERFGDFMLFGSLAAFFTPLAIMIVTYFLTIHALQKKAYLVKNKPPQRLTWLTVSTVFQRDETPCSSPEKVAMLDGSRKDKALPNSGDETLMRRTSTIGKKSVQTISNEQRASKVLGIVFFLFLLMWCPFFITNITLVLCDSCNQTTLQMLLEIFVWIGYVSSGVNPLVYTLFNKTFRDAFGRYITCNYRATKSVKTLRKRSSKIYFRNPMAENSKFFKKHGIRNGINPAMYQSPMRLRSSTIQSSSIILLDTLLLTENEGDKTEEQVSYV
T1 sequence (P28223 whole entry): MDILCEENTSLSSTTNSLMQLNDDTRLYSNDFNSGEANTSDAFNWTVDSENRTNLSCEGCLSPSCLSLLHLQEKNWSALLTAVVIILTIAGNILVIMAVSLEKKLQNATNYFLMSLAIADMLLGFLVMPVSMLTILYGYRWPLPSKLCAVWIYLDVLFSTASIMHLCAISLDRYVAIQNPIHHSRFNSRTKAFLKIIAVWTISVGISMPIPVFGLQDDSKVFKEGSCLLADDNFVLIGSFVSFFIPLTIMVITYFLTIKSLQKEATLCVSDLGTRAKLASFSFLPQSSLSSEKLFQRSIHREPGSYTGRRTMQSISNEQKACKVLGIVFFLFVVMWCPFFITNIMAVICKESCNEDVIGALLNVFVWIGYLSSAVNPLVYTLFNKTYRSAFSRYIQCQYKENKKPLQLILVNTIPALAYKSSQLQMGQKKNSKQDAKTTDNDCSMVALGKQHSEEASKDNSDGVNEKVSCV

Structure (SMILES)	EC50 (human 5-HT2A receptor [1]; [5])	Selectivity 5-HT2A/2C (functional) (human 5-HT2A receptor [1])	Emax (human 5-HT2A receptor [1])	Selectivity 5-HT2C/2A (binding, in parentheses) (human 5-HT2C receptor [2])	Ki (human 5-HT2C receptor [2])	Ki (human 5-HT2B receptor)	Selectivity 5-HT2A/2C (binding) (human 5-HT2A receptor [3])	Ki (human 5-HT2A receptor [3])	EC50 (human 5-HT2C receptor [4]; [6])	Emax (human 5-HT2C receptor [4]; HeLa; read-out: 5-HT2C % Emax)	Selectivity 5-HT2C/2A (functional, in parentheses) (human 5-HT2C receptor [4]; from EC50 values, Table 2)	EC50 (human 5-HT2A receptor [1]; [7])	Emax (human 5-HT2C receptor [4]; HeLa, read-out: 5-HT2C % Emax)
COc1ccc(F)cc1CNCCc1c[nH]c2ccccc12 [Compound 25, N-(5-Fluoro-2-methoxybenzyl)-[2-(1H-indol-3-yl)ethyl]amine]	60.3 nM	0.87	58 ± 1.95%	2.40	151 nM	0.0955 µM	0.42	363 nM	52.5 nM	110 ± 2.19%	1.15		
COc1ccc(Br)cc1CNCCc1c[nH]c2ccccc12 [Compound 27, N-(5-Bromo-2-methoxybenzyl)-[2-(1H-indol-3-yl)ethyl]amine]	17800 nM	0.015	69 ± 3.51%	8.22	135 nM	0.0912 µM	0.12	1120 nM	263 nM	111 ± 4.63%	67.6	17800 nM	
COc1ccc(Cl)cc1CNCCc1c[nH]c2ccccc12 [Compound 28, N-(5-Chloro-2-methoxybenzyl)-[2-(1H-indol-3-yl)ethyl]amine]	8910 nM	0.027	69.2 ± 2.67%	0.74	1320 nM	0.794 µM	1.35	977 nM	240 nM	110 ± 3.35%	37.2	8910 nM	
COc1ccc(OC)c(CNCCc2c[nH]c3ccccc23)c1 [Compound 29, N-(2,5-Dimethoxybenzyl)-[2-(1H-indol-3-yl)ethyl]amine]	3470 nM	0.038	39 ± 0.67%	3.85	87.1 nM	0.0575 µM	0.26	331 nM	132 nM	118 ± 4.45%	26.3		
Oc1cc(Br)ccc1CNCCc1c[nH]c2ccccc12 [Compound 31, N-(4-Bromo-2-hydroxybenzyl)-[2-(1H-indol-3-yl)ethyl]amine]	24500 nM	0.033	62.5 ± 10.8%	2.63	603 nM	0.11 µM	0.38	1550 nM	813 nM	74.8 ± 2.6%	30.2		
Oc1cccc(Br)c1CNCCc1c[nH]c2ccccc12 [Compound 33, N-(6-Bromo-2-hydroxybenzyl)-[2-(1H-indol-3-yl)ethyl]amine]	5890 nM	0.13	34.4 ± 1.37%	15	112 nM	0.0692 µM	0.067	1660 nM	794 nM	104 ± 2.91%	7.41		
Oc1cccc(F)c1CNCCc1c[nH]c2ccccc12 [Compound 34, N-(6-Fluoro-2-hydroxybenzyl)-[2-(1H-indol-3-yl)ethyl]amine]	39.8 nM	0.47	49.3 ± 3.23%		155 nM	0.115 µM		229 nM	18.6 nM	91.7 ± 6.6%	2.13		
COc1ccc(CNCCc2c[nH]c3ccccc23)cc1OC [Compound 36, N-(3,4-Dimethoxybenzyl)-[2-(1H-indol-3-yl)ethyl]amine]	2240 nM	0.026	50.5 ± 8.27%	1.09	1200 nM	0.288 µM	0.92	1290 nM	57.5 nM	100 ± 2.85%	38.9		
COc1ccc2[nH]cc(CCNCc3ccccc3)c2c1 [Compound 37, N-Benzyl-[2-(5-methoxy-1H-indol-3-yl)ethyl]amine]	20.4 nM	0.71	63.2 ± 1.44%	0.34	95.5 nM	0.0166 µM	2.93	33.1 nM	14.4 nM	113 ± 3.47%	1.41		
COc1ccc2[nH]cc(CCNCc3ccccc3Cl)c2c1 [Compound 39, N-(2-Chlorobenzyl)-[2-(5-methoxy-1H-indol-3-yl)ethyl]amine]	12 nM	6.76	47.7 ± 1.57%	0.18	74.1 nM	0.0371 µM	5.51	13.5 nM	81.3 nM	106 ± 4.32%	0.15		
COc1ccc2[nH]cc(CCNCc3ccccc3Br)c2c1 [Compound 40, N-(2-Bromobenzyl)-[2-(5-methoxy-1H-indol-3-yl)ethyl]amine]	29.5 nM	0.93	44.8 ± 0.99%	0.18	70.8 nM	0.0288 µM	5.66	12.3 nM	27.5 nM	105 ± 4.32%	1.07		
COc1ccc2[nH]cc(CCNCc3ccc(Br)cc3)c2c1 [Compound 41, N-(4-Bromobenzyl)-[2-(5-methoxy-1H-indol-3-yl)ethyl]amine]	1860 nM	0.071	60.5 ± 2.41%	1.02	380 nM	0.155 µM	0.98	389 nM	132 nM	93.5 ± 3.05%	14.1		
COc1ccc(O)c(CNCCc2c[nH]c3ccc(OC)cc23)c1 [Compound 42, N-(2-Hydroxy-5-methoxybenzyl)-[2-(5-methoxy-1H-indol-3-yl)ethyl]amine]		0.91	43.6 ± 0.9%	3.31	40.7 nM	0.0204 µM	0.30	135 nM			1.1		89.4 ± 3.86%
